Measurements from patent US20260199293A1, “2-Arylbenzimidazole Compounds for the Treatment of Hemoglobinopathies” (TRANQUIS THERAPEUTICS, INC., priority 2022, published 2026).

What was measured:
[1] = tested on: human primary erythroid progenitor CD34+ cells; assay: Effects on human primary erythroid progenitor CD34+ cells (F cells by flow cytometry, globin mRNA by qRT-PCR), Example 7; assay type: cell-based; conditions: for percentage of HbF-positive cells (F cells): flow cytometry
Procedure: The effects of the compounds and formulations described in Sections 3.2 and 3.3 hereinabove on human primary erythroid progenitor CD34^+ cells are studies using methods adapted from Sun et al. Sun et al., Br J Haematol. 197:97-109 (2022), the disclosure of which is herein incorporated by reference in its entirety. HbF-positive cells (F cells) are quantified by flow cytometry after compound exposure. Globin gene mRNA abundance is determined by quantitative real-time polymerase chain reaction (qRT-PCR).

SCD mice = assay: Effects on SCD mice (globin gene expression by qRT-PCR, F cells in peripheral blood by flow cytometry), Example 8; assay type: in vivo
Procedure: The effects of the compounds and formulations described in Sections 3.2 and 3.3 on SCD mice are studied using methods adapted from Sun et al., Br J Haematol. 197:97-109 (2022), the disclosure of which is herein incorporated by reference in its entirety. Relative mRNA abundance of PGC-1α and globin gene expression are determined by quantitative real-time polymerase chain reaction (qRT-PC R). HbF-positive cells (F cells) in peripheral blood of treated SCD mice are quantified by flow cytometry

Solubility (statement) = assay type: physicochemical
Source text: Oral administration is preferred to parenteral administration for chronic life-long treatment, as is required for treating hemoglobinopathies such as sickle cell disease. […] There is a need, therefore, for agents that increase PGC-1α expression that can be administered orally for treatment of hemoglobinopathies such as SCD.

[2] = tested on: human primary erythroid progenitor CD34+ cells; conditions: cited from earlier work
sickle mice = conditions: cited from earlier work
[3] = tested on: Ppargc1α (PGC-1α) expression; conditions: cited from earlier work
[4] = tested on: murine models of neurodegenerative diseases; conditions: cited from earlier work
older mice = conditions: cited from earlier work
[5] = tested on: acute systemic immune activation, including cytokine release syndrome (CRS); conditions: cited from earlier work

| Structure (SMILES) | fetal γ-globin mRNA protein expression [1] | percentage of HbF-positive cells (F cells) [1] | expression of the murine embryonic βh1-globin gene (SCD mice) | human γ-globin gene expression (SCD mice) | solubility (Solubility (statement)) | cell proliferation and differentiation [2] | fetal γ-globin mRNA and protein expression [2] | percentage of HbF-positive cell (F cells) [2] | expression of the murine embryonic βh1-globin gene (sickle mice) | γ-globin expression and fetal hemoglobin (HbF) production (sickle mice) | Ppargc1α (PGC-1α) expression [3] | disease severity [4] | myeloid-mediated inflammation [4] | behavioral dysfunction (older mice) | inflammatory cytokine production in microglia (older mice) | metabolic dysfunction in microglia (older mice) | systemic inflammation (older mice) | acute systemic immune activation, including cytokine release syndrome (CRS) [5] |
| --- | --- | --- | --- | --- | --- | --- | --- | --- | --- | --- | --- | --- | --- | --- | --- | --- | --- | --- |
| CC(C)(C)c1ccc(-c2nc3cc(O)ccc3[nH]2)cc1 [Compound 26, 2-(4-tert-Butylphenyl)-1H-benzo[d]imidazol-5-ol] | induce | induce | induce | induce | – | – | – | – | – | – | – | – | – | – | – | – | – | – |
| CC(C)(C)c1ccc(-c2nc3ccccc3[nH]2)cc1 [TQS-168, 2-(4-tert-butylphenyl)-1H-benzimidazole] | induce | induce | induce | induce | poorly soluble | without significantly affecting | induce | induce | robust expression | induce | activator | reduce | suppress | alleviate | inhibit | suppress | suppress | suppress |
